Assay results: patent US8252832B2, “Kinesin inhibitors as cancer therapeutics” (Novartis AG, priority 2007, dated 2012)
Read-outs that look alike come from different tables or passages of the source.

How the values were obtained:
[1] = test system: MV4; 11; experiment: CellTiter-Glo, hematologic malignancy panel; assay type: cell-based, human; conditions: AML; for GI50: Homo sapiens
Excerpt: (§1) Identification of tumor types that are the most sensitive to the KSP inhibitors of the present invention can be accomplished using an unbiased approach that uses several cell-based assays. The assays chosen were as follows: • CellTiter-Glo®. This is an assay designed to measure ATP concentration in a cell culture, and can be correlated to cell number. Briefly CellTiter-Glo® (Promega Corporation) is a homogeneous method using the single CellTiter-Glo® reagent to detect ATP wherein ATP in the assay drives the activity of a thermostable luciferase to create a luminescent signal which can then be measured and correlated with the number of viable cells. Briefly, for adherent cells, 1,000 to 5,000 cells/well were plated in 96-well plates (100 μl/well) and let to adhere for 24 hours before being treated with drug. For non-adherent cells, 1,000 to 10,000 cells/well were plated in 96-well plates (100 μl/well) and immediately treated with drug. Drug dilutions were prepared in DMSO at 1000 times the final concentration. These dilutions were then diluted 1/100 in growth media before being added to the cells (11 μl/well) to achieve the desired final concentration. After 48 h in a 37° C. tissue culture incubator, the plates were processed for the CellTiter-Glo®assay according to the manufacturer's instructions. Protocol for a 72 hour cell proliferation assay: The 72 hour assay was performed the same way as the 48 hour assay except for the following modifications: For adherent cells, 500 to 5,000 cells/well were plated in 96-well plates (90 μl/well cell growth media) and left to adhere for 24 hours before being treated with drug. For non-adherent cells, 1,000 to 10,000 cells/well were plated in 96-well plates (90 μl/well cell growth media) and immediately treated with drug. Data values presented represent the concentration of test compound required for a 50% reduction in growth. • LDH release. The Cytotoxicity Detection KitPLUS (LDH) assay (Roche Diagnostics, Manheim, Germany) measures the amount of LDH released in the media by dying cells; LDH catalyzes the conversion of lactate into pyruvate. The enzymatic reaction is coupled to a chemical reaction that uses a tetrazolium salt to form a formazan that is red and can be detected by its absorbance at 490 nm. This assay measures the amount of cell death after drug treatment. Cells were plated at 10,000 cells/well in 96-well plates (100 μl/well). Adherent cells were let to adhere for 24 hours before being treated with drug, whereas non-adherent cells were immediately treated with drug. Drug dilutions were prepared in DMSO at 1000 times the final concentration. These dilutions were then diluted 1/100 in growth media before being added to the cells (11 μl/well) to achieve the desired final concentration. After 48 h in a 37° C. tissue culture incubator, the plates were processed for the Cytotoxicity Detection KitPLUS (LDH) assay according to the manufacturer's instructions. The media only values were subtracted from all the data points before analysis. Data values presented correspond to the compound concentration wherein LDH output is at half maximal level. • Caspase-Glo® 3/7. The Caspase-Glo® 3/7 Assay (Promega Corporation) is a homogeneous luminescent assay that measures caspase-3/7 activities. The assay provides a proluminescent caspase-3/7 DEVD-aminoluciferin substrate and a thermostable luciferase in a reagent optimized for caspase-3/7 activity, luciferase activity and cell lysis. Adding the single Caspase-Glo® 3/7 Reagent results in cell lysis, followed by caspase cleavage of the substrate. This liberates free aminoluciferin, which is consumed by the luciferase, generating a luminescent signal. The signal is proportional to caspase-3/7 activity. Data values presented correspond to the compound concentration wherein caspase 3/7 activity is at half maximal level. […]

[2] = test system: KMS11-Luc; experiment: CellTiter-Glo, hematologic malignancy panel; assay type: cell-based, human; conditions: MM; for GI50: Homo sapiens
Excerpt: as §1

[3] = test system: RL; experiment: CellTiter-Glo, hematologic malignancy panel; assay type: cell-based, human; conditions: NHL; for GI50: Homo sapiens
Excerpt: as §1

[4] = test system: MV4; 11Luc; experiment: CellTiter-Glo, hematologic malignancy panel; assay type: cell-based, human; conditions: AML; for GI50: Homo sapiens
Excerpt: as §1

[5] = KMS-11-luc disseminated disease model, host response; assay type: in vivo, mouse; conditions: q4d × 3, i.v.
Experimental: Experiments were performed using immunodeficient SCID-Beige female mice approximately 7-8 weeks old (Charles River Laboratories, Wilmington, Mass.). […] Routine animal care and assurance of welfare were as described above. […] Doses were adjusted to each animal's body weight. […] Approximately 10 minutes prior to imaging, mice were injected i.p. with 150 mg/kg luciferin (Xenogen Corporation, Alameda, Calif.), followed by anesthetization with isoflurane. Photon emission was measured using a charge coupled device camera in the IVIS imaging system (Xenogen Corporation). Briefly, a gray-scale image of the mice was captured, followed by an overlay of a bioluminescence map representing the spatial distribution of photons detected from cleaved luciferin in the cancer cells expressing luciferase. Signal intensity was quantified using a customized version of the IGOR Pro version 4.09A Software (WaveMetrics, Inc., Lake Oswego, Oreg.) called Living Image version 2.50.2 (Xenogen). The sum of all detected photon counts from the right+left legs were determined. Bioluminescence of cancer cells in the animals was measured by imaging on designated days until the first mice developed hind limb paralysis due to disease burden, the main end point for when to humanely euthanize mice. The day of euthanasia for each mouse was recorded, and the remaining percentage of mice surviving was plotted over time (Kaplan-Meier survival analysis). P values were calculated using the log-rank test (GraphPad Prism 4.0 software) to assess differences between treated and control groups (p<0.05 was considered significant). […] Data analysis was as described above.

[6] = test system: OPM2; experiment: CellTiter-Glo, hematologic malignancy panel; assay type: cell-based; conditions: for GI50: Homo sapiens, OPM-2, MM
Excerpt: as §1

[7] = test system: LP1; experiment: CellTiter-Glo, hematologic malignancy panel; assay type: cell-based; conditions: for GI50: Homo sapiens, LP-1, MM
Excerpt: as §1

[8] = test system: KMS11; experiment: CellTiter-Glo, hematologic malignancy panel; assay type: cell-based; conditions: for GI50: Homo sapiens, KMS-11, MM
Excerpt: as §1

[9] = test system: HL60; experiment: CellTiter-Glo, hematologic malignancy panel; assay type: cell-based; conditions: for GI50: Homo sapiens, HL-60, AML
Excerpt: as §1

[10] = GI50 in nM, read-out: Log(GI50) (converted)

Q: With CC(C)(C)[C@H](c1nc(-c2cc(F)ccc2F)cn1Cc1ccccc1)N(CC[C@H](N)CF)C(=O)CO [Compound IIa] as the compound, how does the “Differential vs mean Log(GI50)” value [1] read?
A: 0.644

Q: And the GI50 [1, 10]?
A: 0.0769 nM

Q: What about the GI50 ([1]; read-out: GI50) of the same compound?
A: 0.08 nM

Q: And the GI50 [2, 10]?
A: 0.29 nM

Q: And the GI50 ([2]; read-out: GI50)?
A: 0.29 nM

Q: And the “Differential vs mean Log(GI50)” value [2]?
A: 0.068

Q: What about the GI50 [3, 10] of the same compound?
A: 20 nM

Q: And the GI50 ([3]; read-out: GI50)?
A: 20 nM

Q: What about the “Differential vs mean Log(GI50)” value [3] of the same compound?
A: −1.771

Q: And the “Differential vs mean Log(GI50)” value [4]?
A: 0.509

Q: What about the GI50 [4, 10] of the same compound?
A: 0.105 nM

Q: And the GI50 ([4]; read-out: GI50)?
A: 0.11 nM

Q: And the “Max. Δ body weight (Day)” value ([5]; 0.25 mg/kg, D14)?
A: 2.1 ± 1.23 g

Q: And the “Max. Δ body weight (Day) (%)” value ([5]; 0.25 mg/kg, D14)?
A: 5.0 ± 2.0%

Q: What about the “Max. Δ body weight (Day)” value ([5]; 0.5 mg/kg, D14) of the same compound?
A: 2.5 ± 0.23 g

Q: And the “Max. Δ body weight (Day) (%)” value ([5]; 0.5 mg/kg, D14)?
A: 6.7 ± 1.1%

Q: And the “Max. Δ body weight (Day)” value ([5]; 1 mg/kg, D13)?
A: -0.74 ± 0.75 g

Q: What about the “Max. Δ body weight (Day) (%)” value ([5]; 1 mg/kg, D13) of the same compound?
A: −3.3 ± 4.0%

Q: What about the GI50 [6, 10] of the same compound?
A: 0.135 nM

Q: What about the GI50 ([6]; read-out: GI50) of the same compound?
A: 0.14 nM

Q: And the “Differential vs mean Log(GI50)” value ([6]; MM)?
A: 0.400

Q: What about the GI50 [7, 10] of the same compound?
A: 0.205 nM

Q: What about the GI50 ([7]; read-out: GI50) of the same compound?
A: 0.21 nM

Q: And the “Differential vs mean Log(GI50)” value ([7]; MM)?
A: 0.218

Q: And the GI50 [8, 10]?
A: 0.483 nM

Q: And the GI50 ([8]; read-out: GI50)?
A: 0.48 nM

Q: What about the “Differential vs mean Log(GI50)” value ([8]; MM) of the same compound?
A: −0.154

Q: What about the “Differential vs mean Log(GI50)” value ([9]; AML) of the same compound?
A: 0.313

Q: What about the GI50 [9, 10] of the same compound?
A: 0.165 nM

Q: What about the GI50 ([9]; read-out: GI50) of the same compound?
A: 0.17 nM
